Source: patent US8802661B2, “C-28 amides of modified C-3 betulinic acid derivatives as HIV maturation inhibitors” (priority 2010, dated 2014)
Where two headings read alike, the source gives them in different places.

System: recombinant NL4-3 virus (Renilla luciferase in nef, Gag P373S)
Experiment: HIV Cell Culture Assay (luciferase reporter virus in MT-2 cells)
Type: cell-based
In short: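 Inhibitor potency against the reporter virus comes from reduced luciferase activity in infected MT-2 cells exposed to a dilution series of compound over 4-5 days.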

Row | Compound | EC50 (NL43, read-out: EC50 Group) | EC50 (NL43)
1 | C=C(C)[C@@H]1CC[C@]2(C(=O)NCCN(CC(=O)O)Cc3ccccc3)CC[C@]3(C)[C@H](CC[C@@H]4[C@@]5(C)CC=C(c6ccc(C(=O)O)cc6)C(C)(C)[C@@H]5CC[C@]43C)[C@@H]12 [Example 107, 4-((1R,3aS,5aR,5bR,7aR,11aS,11bR,13aR,13bR)-3a-(2-(benzyl(carboxymethyl)amino)ethylcarbamoyl)-5a,5b,8,8,11a-pentamethyl-1-(prop-1-en-2-yl)-2,3,3a,4,5,5a,5b,6,7,7a,8,11,11a,11b,12,13,13a,13b-octadecahydro-1H-cyclopenta[a]chrysen-9-yl)benzoic acid] | < 100 nM | 
2 | C=C(C)[C@@H]1CC[C@]2(C(=O)NCCN3CCNC(=O)C3)CC[C@]3(C)[C@H](CC[C@@H]4[C@@]5(C)CC=C(c6ccc(C(=O)O)cc6)C(C)(C)[C@@H]5CC[C@]43C)[C@@H]12 [Example 108, 4-((1R,3aS,5aR,5bR,7aR,11aS,11bR,13aR,13bR)-5a,5b,8,8,11a-pentamethyl-3a-(2-(3-oxopiperazin-1-yl)ethylcarbamoyl)-1-(prop-1-en-2-yl)-2,3,3a,4,5,5a,5b,6,7,7a,8,11,11a,11b,12,13,13a,13b-octadecahydro-1H-cyclopenta[a]chrysen-9-yl)benzoic acid] | < 100 nM | 
3 | C=C(C)[C@@H]1CC[C@]2(C(=O)NCCCN3CCS(=O)(=O)CC3)CC[C@]3(C)[C@H](CC[C@@H]4[C@@]5(C)CC=C(c6ccc(C(=O)O)cc6F)C(C)(C)[C@@H]5CC[C@]43C)[C@@H]12 [Example 109, 4-((1R,3aS,5aR,5bR,7aR,11aS,11bR,13aR,13bR)-3a-((3-(1,1-dioxido-4-thiomorpholinyl)propyl)carbamoyl)-1-isopropenyl-5a,5b,8,8,11a-pentamethyl-2,3,3a,4,5,5a,5b,6,7,7a,8,11,11a,11b,12,13,13a,13b-octadecahydro-1H-cyclopenta[a]chrysen-9-yl)-3-fluorobenzoic acid] | < 100 nM | 
4 | C=C(C)[C@@H]1CC[C@]2(C(=O)NCCNc3ccccc3)CC[C@]3(C)[C@H](CC[C@@H]4[C@@]5(C)CC=C(c6ccc(C(=O)O)cc6)C(C)(C)[C@@H]5CC[C@]43C)[C@@H]12 [Example 110, 4-((1R,3aS,5aR,5bR,7aR,11aS,11bR,13aR,13bR)-5a,5b,8,8,11a-pentamethyl-3a-(2-(phenylamino)ethylcarbamoyl)-1-(prop-1-en-2-yl)-2,3,3a,4,5,5a,5b,6,7,7a,8,11,11a,11b,12,13,13a,13b-octadecahydro-1H-cyclopenta[a]chrysen-9-yl)benzoic acid] | < 100 nM | 
5 | C=C(C)[C@@H]1CC[C@]2(C(=O)NCCN(CC(=O)O)c3ccccc3)CC[C@]3(C)[C@H](CC[C@@H]4[C@@]5(C)CC=C(c6ccc(C(=O)O)cc6)C(C)(C)[C@@H]5CC[C@]43C)[C@@H]12 [Example 111, 4-((1R,3aS,5aR,5bR,7aR,11aS,11bR,13aR,13bR)-3a-(2-((carboxymethyl)(phenyl)amino)ethylcarbamoyl)-5a,5b,8,8,11a-pentamethyl-1-(prop-1-en-2-yl)-2,3,3a,4,5,5a,5b,6,7,7a,8,11,11a,11b,12,13,13a,13b-octadecahydro-1H-cyclopenta[a]chrysen-9-yl)benzoic acid] | < 100 nM | 
6 | C=C(C)[C@@H]1CC[C@]2(C(=O)NCCCN3CCS(=O)(=O)CC3)CC[C@]3(C)[C@H](CC[C@@H]4[C@@]5(C)CC=C(c6ccc(C(=O)O)c(C(=O)O)c6)C(C)(C)[C@@H]5CC[C@]43C)[C@@H]12 [Example 112, 4-((1R,3aS,5aR,5bR,7aR,11aS,11bR,13aR,13bR)-3a-((3-(1,1-dioxido-4-thiomorpholinyl)propyl)carbamoyl)-1-isopropenyl-5a,5b,8,8,11a-pentamethyl-2,3,3a,4,5,5a,5b,6,7,7a,8,11,11a,11b,12,13,13a,13b-octadecahydro-1H-cyclopenta[a]chrysen-9-yl)phthalic acid] | < 100 nM | 
7 | C=C(C)[C@@H]1CC[C@]2(C(=O)NCCN(C)C)CC[C@]3(C)[C@H](CC[C@@H]4[C@@]5(C)CC=C(c6ccc(C(=O)O)c(C(=O)O)c6)C(C)(C)[C@@H]5CC[C@]43C)[C@@H]12 [Example 113, 4-((1R,3aS,5aR,5bR,7aR,11aS,11bR,13aR,13bR)-3a-(2-(dimethylamino)ethylcarbamoyl)-5a,5b,8,8,11a-pentamethyl-1-(prop-1-en-2-yl)-2,3,3a,4,5,5a,5b,6,7,7a,8,11,11a,11b,12,13,13a,13b-octadecahydro-1H-cyclopenta[a]chrysen-9-yl)phthalic acid] | > 100 nM | 
8 | C=C(C)[C@@H]1CC[C@]2(C(=O)NCCNc3ccc(C(=O)O)cc3)CC[C@]3(C)[C@H](CC[C@@H]4[C@@]5(C)CC=C(c6ccc(C(=O)O)cc6)C(C)(C)[C@@H]5CC[C@]43C)[C@@H]12 [Example 114, 4-(2-((1R,3aS,5aR,5bR,7aR,11aS,11bR,13aR,13bR)-9-(4-carboxyphenyl)-5a,5b,8,8,11a-pentamethyl-1-(prop-1-en-2-yl)-2,3,3a,4,5,5a,5b,6,7,7a,8,11,11a,11b,12,13,13a,13b-octadecahydro-1H-cyclopenta[a]chrysene-3a-carboxamido)ethylamino)benzoic acid] |  | 17.6 nM
9 | C=C(C)[C@@H]1CC[C@]2(C(=O)NCCN(C)CCOC(=O)CCC(=O)O)CC[C@]3(C)[C@H](CC[C@@H]4[C@@]5(C)CC=C(c6ccc(C(=O)O)cc6)C(C)(C)[C@@H]5CC[C@]43C)[C@@H]12 [Example 115, 4-((1R,3aS,5aR,5bR,7aR,11aS,11bR,13aR,13bR)-3a-(2-((2-(3-carboxypropanoyloxy)ethyl)(methyl)amino)ethylcarbamoyl)-5a,5b,8,8,11a-pentamethyl-1-(prop-1-en-2-yl)-2,3,3a,4,5,5a,5b,6,7,7a,8,11,11a,11b,12,13,13a,13b-octadecahydro-1H-cyclopenta[a]chrysen-9-yl)benzoic acid] | < 100 nM | 
10 | C=C(C)[C@@H]1CC[C@]2(C(=O)NCCN3CCS(=O)(=O)CC3)CC[C@]3(C)[C@H](CC[C@@H]4[C@@]5(C)CC=C(c6ccc(C(=O)O)c(F)c6)C(C)(C)[C@@H]5CC[C@]43C)[C@@H]12 [Example 116, 4-((1R,3aS,5aR,5bR,7aR,11aS,11bR,13aR,13bR)-3a-((2-(1,1-dioxido-4-thiomorpholinyl)ethyl)carbamoyl)-1-isopropenyl-5a,5b,8,8,11a-pentamethyl-2,3,3a,4,5,5a,5b,6,7,7a,8,11,11a,11b,12,13,13a,13b-octadecahydro-1H-cyclopenta[a]chrysen-9-yl)-2-fluorobenzoic acid] | < 100 nM | 
11 | C=C(C)[C@@H]1CC[C@]2(C(=O)NCCN3CCC(F)(F)CC3)CC[C@]3(C)[C@H](CC[C@@H]4[C@@]5(C)CC=C(c6ccc(C(=O)O)c(F)c6)C(C)(C)[C@@H]5CC[C@]43C)[C@@H]12 [Example 117, 4-((1R,3aS,5aR,5bR,7aR,11aS,11bR,13aR,13bR)-3a-(2-(4,4-difluoropiperidin-1-yl)ethylcarbamoyl)-5a,5b,8,8,11a-pentamethyl-1-(prop-1-en-2-yl)-2,3,3a,4,5,5a,5b,6,7,7a,8,11,11a,11b,12,13,13a,13b-octadecahydro-1H-cyclopenta[a]chrysen-9-yl)-2-fluorobenzoic acid] | < 100 nM | 
12 | C=C(C)[C@@H]1CC[C@]2(C(=O)NCCN3CCC(F)(F)CC3)CC[C@]3(C)[C@H](CC[C@@H]4[C@@]5(C)CC=C(c6ccc(C(=O)O)cc6)C(C)(C)[C@@H]5CC[C@]43C)[C@@H]12 [Example 118, 4-((1R,3aS,5aR,5bR,7aR,11aS,11bR,13aR,13bR)-3a-(2-(4,4-difluoropiperidin-1-yl)ethylcarbamoyl)-5a,5b,8,8,11a-pentamethyl-1-(prop-1-en-2-yl)-2,3,3a,4,5,5a,5b,6,7,7a,8,11,11a,11b,12,13,13a,13b-octadecahydro-1H-cyclopenta[a]chrysen-9-yl)benzoic acid] | < 100 nM | 
13 | C=C(C)[C@@H]1CC[C@]2(C(=O)NCCN3CCC(F)(F)CC3)CC[C@]3(C)[C@H](CC[C@@H]4[C@@]5(C)CC=C(c6ccc(C(=O)O)cc6F)C(C)(C)[C@@H]5CC[C@]43C)[C@@H]12 [Example 119, 4-((1R,3aS,5aR,5bR,7aR,11aS,11bR,13aR,13bR)-3a-(2-(4,4-difluoropiperidin-1-yl)ethylcarbamoyl)-5a,5b,8,8,11a-pentamethyl-1-(prop-1-en-2-yl)-2,3,3a,4,5,5a,5b,6,7,7a,8,11,11a,11b,12,13,13a,13b-octadecahydro-1H-cyclopenta[a]chrysen-9-yl)-3-fluorobenzoic acid] | < 100 nM | 
14 | C=C(C)[C@@H]1CC[C@]2(C(=O)NCCN3CCS(=O)(=O)CC3)CC[C@]3(C)[C@H](CC[C@@H]4[C@@]5(C)CC=C(c6ccc(C(=O)O)cc6F)C(C)(C)[C@@H]5CC[C@]43C)[C@@H]12 [Example 120, 4-((1R,3aS,5aR,5bR,7aR,11aS,11bR,13aR,13bR)-3a-((2-(1,1-dioxido-4-thiomorpholinyl)ethyl)carbamoyl)-1-isopropenyl-5a,5b,8,8,11a-pentamethyl-2,3,3a,4,5,5a,5b,6,7,7a,8,11,11a,11b,12,13,13a,13b-octadecahydro-1H-cyclopenta[a]chrysen-9-yl)-3-fluorobenzoic acid] | < 100 nM | 
15 | C=C(C)[C@@H]1CC[C@]2(C(=O)NCCN3CCS(=O)(=O)CC3)CC[C@]3(C)[C@H](CC[C@@H]4[C@@]5(C)CC=C(c6cc(F)c(C(=O)O)c(F)c6)C(C)(C)[C@@H]5CC[C@]43C)[C@@H]12 [Example 121, 4-((1R,3aS,5aR,5bR,7aR,11aS,11bR,13aR,13bR)-3a-((2-(1,1-dioxido-4-thiomorpholinyl)ethyl)carbamoyl)-1-isopropenyl-5a,5b,8,8,11a-pentamethyl-2,3,3a,4,5,5a,5b,6,7,7a,8,11,11a,11b,12,13,13a,13b-octadecahydro-1H-cyclopenta[a]chrysen-9-yl)-2,6-difluorobenzoic acid] | < 100 nM | 
